Assay results as given in the supplement of paper PMC10307832.

How the values were obtained:
Experiment in all cases: relative viability (nuclei count vs DMSO), 5 days (fraction); higher = more cells survive
Ispinesib + Navitoclax = compound: Cc1ccc(C(=O)N(CCCN)[C@@H](c2nc3cc(Cl)ccc3c(=O)n2Cc2ccccc2)C(C)C)cc1 [Ispinesib] + CC1(C)CCC(c2ccc(Cl)cc2)=C(CN2CCN(c3ccc(C(=O)NS(=O)(=O)c4ccc(N[C@H](CCN5CCOCC5)CSc5ccccc5)c(S(=O)(=O)C(F)(F)F)c4)cc3)CC2)C1 [Navitoclax] (partner 0.5 µM)
In short: (§1)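 Relative viability is defined as nuclei in treated wells over nuclei in vehicle wells. Duplicate plates were run and medians reported. Lung cancer cell lines in 1536-well plates were dosed by pin tool one day after seeding, with one drug or with a fixed anchor-drug dose plus five library-drug doses (not always all listed) in √10 steps, and nuclei were counted after 5 days.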

Ispinesib + Linsitinib = compound: Cc1ccc(C(=O)N(CCCN)[C@@H](c2nc3cc(Cl)ccc3c(=O)n2Cc2ccccc2)C(C)C)cc1 [Ispinesib] + C[C@]1(O)C[C@@H](c2nc(-c3ccc4ccc(-c5ccccc5)nc4c3)c3c(N)nccn32)C1 [Linsitinib] (partner 1 µM)
In short: as §1

Linsitinib + Bortezomib = compound: C[C@]1(O)C[C@@H](c2nc(-c3ccc4ccc(-c5ccccc5)nc4c3)c3c(N)nccn32)C1 [Linsitinib] + CC(C)C[C@H](NC(=O)[C@H](Cc1ccccc1)NC(=O)c1cnccn1)B(O)O [Bortezomib] (partner 0.002 µM)
In short: as §1

Ispinesib + Bortezomib = compound: Cc1ccc(C(=O)N(CCCN)[C@@H](c2nc3cc(Cl)ccc3c(=O)n2Cc2ccccc2)C(C)C)cc1 [Ispinesib] + CC(C)C[C@H](NC(=O)[C@H](Cc1ccccc1)NC(=O)c1cnccn1)B(O)O [Bortezomib] (partner 0.002 µM)
In short: as §1

HCC-44
relative viability (Ispinesib + Navitoclax; first compound 0.001 µM): 1.02
relative viability (Ispinesib + Navitoclax; first compound 0.003162 µM): 1
relative viability (Ispinesib + Navitoclax; first compound 0.01 µM): 1.2
relative viability (Ispinesib + Navitoclax; first compound 0.03162 µM): 1.05
relative viability (Ispinesib + Navitoclax; first compound 0.1 µM): 0.265
relative viability (Ispinesib + Linsitinib; first compound 0.001 µM): 0.702
relative viability (Ispinesib + Linsitinib; first compound 0.003162 µM): 0.746
relative viability (Ispinesib + Linsitinib; first compound 0.01 µM): 0.812
relative viability (Ispinesib + Linsitinib; first compound 0.03162 µM): 0.698
relative viability (Ispinesib + Linsitinib; first compound 0.1 µM): 0.248
relative viability (Linsitinib + Bortezomib; first compound 0.01 µM): 0.841
relative viability (Linsitinib + Bortezomib; first compound 0.03162 µM): 0.775
relative viability (Linsitinib + Bortezomib; first compound 0.1 µM): 0.874
relative viability (Linsitinib + Bortezomib; first compound 0.3162 µM): 0.497
relative viability (Linsitinib + Bortezomib; first compound 1 µM): 0.529
relative viability (Ispinesib + Bortezomib; first compound 0.001 µM): 0.911
relative viability (Ispinesib + Bortezomib; first compound 0.003162 µM): 1
relative viability (Ispinesib + Bortezomib; first compound 0.01 µM): 1.1
relative viability (Ispinesib + Bortezomib; first compound 0.03162 µM): 0.719
relative viability (Ispinesib + Bortezomib; first compound 0.1 µM): 0.131

A-427
relative viability (Ispinesib + Navitoclax; first compound 0.001 µM): 0.938
relative viability (Ispinesib + Navitoclax; first compound 0.003162 µM): 0.995
relative viability (Ispinesib + Navitoclax; first compound 0.01 µM): 1.06
relative viability (Ispinesib + Navitoclax; first compound 0.03162 µM): 0.827
relative viability (Ispinesib + Navitoclax; first compound 0.1 µM): 0.903
relative viability (Ispinesib + Linsitinib; first compound 0.001 µM): 1.15
relative viability (Ispinesib + Linsitinib; first compound 0.003162 µM): 1.13
relative viability (Ispinesib + Linsitinib; first compound 0.01 µM): 1.15
relative viability (Ispinesib + Linsitinib; first compound 0.03162 µM): 1.21
relative viability (Ispinesib + Linsitinib; first compound 0.1 µM): 1.12
relative viability (Linsitinib + Bortezomib; first compound 0.01 µM): 0.974
relative viability (Linsitinib + Bortezomib; first compound 0.03162 µM): 1.02
relative viability (Linsitinib + Bortezomib; first compound 0.1 µM): 0.987
relative viability (Linsitinib + Bortezomib; first compound 1 µM): 0.869
relative viability (Ispinesib + Bortezomib; first compound 0.001 µM): 0.98
relative viability (Ispinesib + Bortezomib; first compound 0.003162 µM): 1.07
relative viability (Ispinesib + Bortezomib; first compound 0.01 µM): 1.01
relative viability (Ispinesib + Bortezomib; first compound 0.03162 µM): 0.351
relative viability (Ispinesib + Bortezomib; first compound 0.1 µM): 0.206

NCI-H596
relative viability (Ispinesib + Navitoclax; first compound 0.001 µM): 0.865
relative viability (Ispinesib + Navitoclax; first compound 0.003162 µM): 0.9
relative viability (Ispinesib + Navitoclax; first compound 0.01 µM): 1.07
relative viability (Ispinesib + Navitoclax; first compound 0.03162 µM): 1.05
relative viability (Ispinesib + Navitoclax; first compound 0.1 µM): 0.458
relative viability (Ispinesib + Linsitinib; first compound 0.001 µM): 1.29
relative viability (Ispinesib + Linsitinib; first compound 0.003162 µM): 0.988
relative viability (Ispinesib + Linsitinib; first compound 0.01 µM): 1.17
relative viability (Ispinesib + Linsitinib; first compound 0.03162 µM): 1.06
relative viability (Ispinesib + Linsitinib; first compound 0.1 µM): 0.551
relative viability (Linsitinib + Bortezomib; first compound 0.01 µM): 1.12
relative viability (Linsitinib + Bortezomib; first compound 0.03162 µM): 0.996
relative viability (Linsitinib + Bortezomib; first compound 0.1 µM): 0.974
relative viability (Linsitinib + Bortezomib; first compound 0.3162 µM): 0.872
relative viability (Linsitinib + Bortezomib; first compound 1 µM): 1.06
relative viability (Ispinesib + Bortezomib; first compound 0.001 µM): 1.14
relative viability (Ispinesib + Bortezomib; first compound 0.003162 µM): 1.22
relative viability (Ispinesib + Bortezomib; first compound 0.01 µM): 1.12
relative viability (Ispinesib + Bortezomib; first compound 0.03162 µM): 1.08
relative viability (Ispinesib + Bortezomib; first compound 0.1 µM): 0.463

RERF-LC-KJ
relative viability (Ispinesib + Navitoclax; first compound 0.001 µM): 1.17
relative viability (Ispinesib + Navitoclax; first compound 0.003162 µM): 0.997
relative viability (Ispinesib + Navitoclax; first compound 0.01 µM): 1.01
relative viability (Ispinesib + Navitoclax; first compound 0.03162 µM): 0.74
relative viability (Ispinesib + Navitoclax; first compound 0.1 µM): 0.369
relative viability (Ispinesib + Linsitinib; first compound 0.001 µM): 1.01
relative viability (Ispinesib + Linsitinib; first compound 0.003162 µM): 0.855
relative viability (Ispinesib + Linsitinib; first compound 0.01 µM): 1.02
relative viability (Ispinesib + Linsitinib; first compound 0.03162 µM): 0.819
relative viability (Ispinesib + Linsitinib; first compound 0.1 µM): 0.244
relative viability (Linsitinib + Bortezomib; first compound 0.01 µM): 0.95
relative viability (Linsitinib + Bortezomib; first compound 0.03162 µM): 1.03
relative viability (Linsitinib + Bortezomib; first compound 0.1 µM): 1.16
relative viability (Linsitinib + Bortezomib; first compound 0.3162 µM): 0.892
relative viability (Linsitinib + Bortezomib; first compound 1 µM): 0.927
relative viability (Ispinesib + Bortezomib; first compound 0.001 µM): 1.05
relative viability (Ispinesib + Bortezomib; first compound 0.003162 µM): 1.16
relative viability (Ispinesib + Bortezomib; first compound 0.01 µM): 1.09
relative viability (Ispinesib + Bortezomib; first compound 0.03162 µM): 0.905
relative viability (Ispinesib + Bortezomib; first compound 0.1 µM): 0.597

NCI-H647
relative viability (Ispinesib + Navitoclax; first compound 0.001 µM): 1.22
relative viability (Ispinesib + Navitoclax; first compound 0.003162 µM): 0.978
relative viability (Ispinesib + Navitoclax; first compound 0.01 µM): 1.41
relative viability (Ispinesib + Navitoclax; first compound 0.03162 µM): 0.461
relative viability (Ispinesib + Navitoclax; first compound 0.1 µM): 0.0986
relative viability (Ispinesib + Linsitinib; first compound 0.001 µM): 1.2
relative viability (Ispinesib + Linsitinib; first compound 0.003162 µM): 1.26
relative viability (Ispinesib + Linsitinib; first compound 0.01 µM): 0.949
relative viability (Ispinesib + Linsitinib; first compound 0.03162 µM): 0.607
relative viability (Ispinesib + Linsitinib; first compound 0.1 µM): 0.144
relative viability (Linsitinib + Bortezomib; first compound 0.01 µM): 1.03
relative viability (Linsitinib + Bortezomib; first compound 0.03162 µM): 1.12
relative viability (Linsitinib + Bortezomib; first compound 0.1 µM): 1.07
relative viability (Linsitinib + Bortezomib; first compound 1 µM): 0.811
relative viability (Ispinesib + Bortezomib; first compound 0.001 µM): 0.98
relative viability (Ispinesib + Bortezomib; first compound 0.003162 µM): 0.849
relative viability (Ispinesib + Bortezomib; first compound 0.01 µM): 0.655
relative viability (Ispinesib + Bortezomib; first compound 0.03162 µM): 0.16
relative viability (Ispinesib + Bortezomib; first compound 0.1 µM): 0.167

NCI-H1734
relative viability (Ispinesib + Navitoclax; first compound 0.001 µM): 0.868
relative viability (Ispinesib + Navitoclax; first compound 0.003162 µM): 0.952
relative viability (Ispinesib + Navitoclax; first compound 0.01 µM): 1.04
relative viability (Ispinesib + Navitoclax; first compound 0.03162 µM): 0.777
relative viability (Ispinesib + Navitoclax; first compound 0.1 µM): 0.549
relative viability (Ispinesib + Linsitinib; first compound 0.001 µM): 0.911
relative viability (Ispinesib + Linsitinib; first compound 0.003162 µM): 0.92
relative viability (Ispinesib + Linsitinib; first compound 0.01 µM): 1
relative viability (Ispinesib + Linsitinib; first compound 0.03162 µM): 0.878
relative viability (Ispinesib + Linsitinib; first compound 0.1 µM): 0.634
relative viability (Linsitinib + Bortezomib; first compound 0.01 µM): 0.851
relative viability (Linsitinib + Bortezomib; first compound 0.03162 µM): 0.962
relative viability (Linsitinib + Bortezomib; first compound 0.1 µM): 1.01
relative viability (Linsitinib + Bortezomib; first compound 0.3162 µM): 0.665
relative viability (Linsitinib + Bortezomib; first compound 1 µM): 0.643
relative viability (Ispinesib + Bortezomib; first compound 0.001 µM): 0.943
relative viability (Ispinesib + Bortezomib; first compound 0.003162 µM): 0.954
relative viability (Ispinesib + Bortezomib; first compound 0.01 µM): 0.997
relative viability (Ispinesib + Bortezomib; first compound 0.03162 µM): 0.962
relative viability (Ispinesib + Bortezomib; first compound 0.1 µM): 0.328

SK-LU-1
relative viability (Ispinesib + Navitoclax; first compound 0.001 µM): 0.955
relative viability (Ispinesib + Navitoclax; first compound 0.003162 µM): 0.794
relative viability (Ispinesib + Navitoclax; first compound 0.01 µM): 1.23
relative viability (Ispinesib + Navitoclax; first compound 0.03162 µM): 0.415
relative viability (Ispinesib + Navitoclax; first compound 0.1 µM): 0.164
relative viability (Ispinesib + Linsitinib; first compound 0.001 µM): 1.15
relative viability (Ispinesib + Linsitinib; first compound 0.003162 µM): 1.32
relative viability (Ispinesib + Linsitinib; first compound 0.01 µM): 1.43
relative viability (Ispinesib + Linsitinib; first compound 0.03162 µM): 0.932
relative viability (Ispinesib + Linsitinib; first compound 0.1 µM): 0.382
relative viability (Linsitinib + Bortezomib; first compound 0.01 µM): 1.19
relative viability (Linsitinib + Bortezomib; first compound 0.03162 µM): 0.659
relative viability (Linsitinib + Bortezomib; first compound 0.1 µM): 1.25
relative viability (Linsitinib + Bortezomib; first compound 0.3162 µM): 0.492
relative viability (Linsitinib + Bortezomib; first compound 1 µM): 0.561
relative viability (Ispinesib + Bortezomib; first compound 0.001 µM): 1.32
relative viability (Ispinesib + Bortezomib; first compound 0.003162 µM): 1.39
relative viability (Ispinesib + Bortezomib; first compound 0.01 µM): 1.48
relative viability (Ispinesib + Bortezomib; first compound 0.03162 µM): 0.585
relative viability (Ispinesib + Bortezomib; first compound 0.1 µM): 0.461

COR-L23
relative viability (Ispinesib + Navitoclax; first compound 0.001 µM): 1.06
relative viability (Ispinesib + Navitoclax; first compound 0.003162 µM): 1.15
relative viability (Ispinesib + Navitoclax; first compound 0.01 µM): 1.34
relative viability (Ispinesib + Navitoclax; first compound 0.03162 µM): 0.192
relative viability (Ispinesib + Navitoclax; first compound 0.1 µM): 0.124
relative viability (Ispinesib + Linsitinib; first compound 0.001 µM): 1.12
relative viability (Ispinesib + Linsitinib; first compound 0.003162 µM): 0.946
relative viability (Ispinesib + Linsitinib; first compound 0.01 µM): 1
relative viability (Ispinesib + Linsitinib; first compound 0.03162 µM): 0.161
relative viability (Ispinesib + Linsitinib; first compound 0.1 µM): 0.16
relative viability (Linsitinib + Bortezomib; first compound 0.01 µM): 0.861
relative viability (Linsitinib + Bortezomib; first compound 0.03162 µM): 1.03
relative viability (Linsitinib + Bortezomib; first compound 0.1 µM): 1.08
relative viability (Linsitinib + Bortezomib; first compound 0.3162 µM): 0.896
relative viability (Linsitinib + Bortezomib; first compound 1 µM): 1.06
relative viability (Ispinesib + Bortezomib; first compound 0.001 µM): 1.29
relative viability (Ispinesib + Bortezomib; first compound 0.003162 µM): 1.04
relative viability (Ispinesib + Bortezomib; first compound 0.01 µM): 1.17
relative viability (Ispinesib + Bortezomib; first compound 0.03162 µM): 0.247
relative viability (Ispinesib + Bortezomib; first compound 0.1 µM): 0.27
